How the values were obtained:
Format in all cases: in vivo
Eclipta prostrata = assay: Greenhouse herbicidal activity assay, post-emergence; settings: Post-emergence test, rate 150 g a.i./hm^2, grade by fresh weight inhibition rate
Summary of the method: (§1)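 Scores reflect fresh weight inhibition assessed 14-21 days after treatment, with grade A meaning ≥80% to 100% and grade E meaning <20%. Plants, raised in nutrient-soil pots inside a growth chamber, were sprayed on the foliage at the 3-6 leaf stage.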

Digitaria sanguinalis = assay: as above; settings: Post-emergence test, rate 150 g a.i./hm^2, grade by fresh weight inhibition rate
Summary of the method: as §1

Cyperus iria = assay: as above; settings: Post-emergence test, rate 150 g a.i./hm^2, grade by fresh weight inhibition rate
Summary of the method: as §1

Leptochloa chinensis [1] = assay: as above; settings: Post-emergence test, rate 150 g a.i./hm^2, grade by fresh weight inhibition rate
Summary of the method: as §1

Echinochloa crusgalli [2] = assay: as above; settings: Post-emergence test, rate 150 g a.i./hm^2, grade by fresh weight inhibition rate
Summary of the method: as §1

Leptochloa chinensis [3] = assay: Greenhouse herbicidal activity and crop safety comparison (Test Example 2)
Summary of the method: (§2)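 Fresh weight inhibition, banded into grades A to E (E <20%), was rated 14-21 days after foliar spraying of 3-6 leaf plants, or 14-30 days after a soil spray applied 24 h post-sowing.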

Echinochloa crusgalli [4] = assay: as above
Summary of the method: as §2

[5] = system: Oryza sativa subsp. indica; assay: as above
Summary of the method: as §2

[6] = system: Oryza sativa subsp. japonica; assay: as above
Summary of the method: as §2

Row | Structure (SMILES) | Control efficacy grade, Eclipta prostrata (Eclipta prostrata) | Control efficacy grade, Digitaria sanguinalis (Digitaria sanguinalis) | Control efficacy grade, Cyperus iria (Cyperus iria) | Control efficacy grade, Leptochloa chinensis (Leptochloa chinensis [1]) | Control efficacy grade, Echinochloa crusgalli (Echinochloa crusgalli [2]) | Leptochloa chinensis, control efficacy grading (fresh weight inhibition rate) (Leptochloa chinensis [3]; Rate 150 g/ha) | Echinochloa crusgalli, control efficacy grading (fresh weight inhibition rate) (Echinochloa crusgalli [4]; Rate 150 g/ha) | Oryza sativa subsp. indica, grading of fresh weight inhibition rate (crop safety) ([5]; Rate 150 g/ha) | Oryza sativa subsp. japonica, grading of fresh weight inhibition rate (crop safety) ([6]; Rate 150 g/ha) | Leptochloa chinensis, control efficacy grading (fresh weight inhibition rate) (Leptochloa chinensis [3]; Rate 250 g/ha) | Echinochloa crusgalli, control efficacy grading (fresh weight inhibition rate) (Echinochloa crusgalli [4]; Rate 250 g/ha) | Oryza sativa subsp. indica, grading of fresh weight inhibition rate (crop safety) ([5]; Rate 250 g/ha) | Oryza sativa subsp. japonica, grading of fresh weight inhibition rate (crop safety) ([6]; Rate 250 g/ha) | pest or weed control at 150 g/ha (Eclipta prostrata; Eclipta prostrata, read-out: Control efficacy grade, Eclipta prostrata) [%] | pest or weed control at 150 g/ha (Digitaria sanguinalis; Digitaria sanguinalis, read-out: Control efficacy grade, Digitaria sanguinalis) [%] | pest or weed control at 150 g/ha (Cyperus iria; Cyperus iria, read-out: Control efficacy grade, Cyperus iria) [%] | pest or weed control at 150 g/ha (Leptochloa chinensis [1]; Dinebra chinensis, read-out: Control efficacy grade, Leptochloa chinensis) [%] | pest or weed control at 150 g/ha (Echinochloa crusgalli [2]; Echinochloa crus-galli, read-out: Control efficacy grade, Echinochloa crusgalli) [%] | inhibition at 150 g/ha (Leptochloa chinensis [3]; Dinebra chinensis, Rate 150 g/ha, read-out: Leptochloa chinensis, control efficacy grading (fresh weight inhibition rate)) [%] | inhibition at 150 g/ha (Echinochloa crusgalli [4]; Echinochloa crus-galli, Rate 150 g/ha, read-out: Echinochloa crusgalli, control efficacy grading (fresh weight inhibition rate)) [%]
1 | CCc1nnc(NC(=O)c2ccc(S(C)(=O)=O)c(S(=O)(=O)C3CCC3)c2Cl)o1 [Compound 3-428] | A (Fresh weight inhibition rate≥80% to 100%) | A (Fresh weight inhibition rate≥80% to 100%) | A (Fresh weight inhibition rate≥80% to 100%) | A (Fresh weight inhibition rate≥80% to 100%) | A (Fresh weight inhibition rate≥80% to 100%) | A (Fresh weight inhibition rate≥80% to 100%) | A (Fresh weight inhibition rate≥80% to 100%) | E (Fresh weight inhibition rate<20%) | E (Fresh weight inhibition rate<20%) |  |  |  |  |  |  |  |  |  |  | 
2 | Cc1nnc(NC(=O)c2ccc(S(C)(=O)=O)c(S(=O)(=O)CC(C)C)c2Cl)o1 [Compound 3-31] | A (Fresh weight inhibition rate≥80% to 100%) | A (Fresh weight inhibition rate≥80% to 100%) | A (Fresh weight inhibition rate≥80% to 100%) | A (Fresh weight inhibition rate≥80% to 100%) | B (Fresh weight inhibition rate≥260% to <80%) |  |  |  |  | A (Fresh weight inhibition rate≥80% to 100%) | A (Fresh weight inhibition rate≥80% to 100%) | E (Fresh weight inhibition rate<20%) | E (Fresh weight inhibition rate<20%) |  |  |  |  |  |  | 
3 | CS(=O)(=O)c1ccc(C(=O)Nc2nnco2)c(Cl)c1S(=O)(=O)C1CCCC1 [Compound 3-317] | A (Fresh weight inhibition rate≥80% to 100%) | A (Fresh weight inhibition rate≥80% to 100%) | A (Fresh weight inhibition rate≥80% to 100%) | A (Fresh weight inhibition rate≥80% to 100%) | A (Fresh weight inhibition rate≥80% to 100%) | A (Fresh weight inhibition rate≥80% to 100%) | A (Fresh weight inhibition rate≥80% to 100%) | E (Fresh weight inhibition rate<20%) | E (Fresh weight inhibition rate<20%) |  |  |  |  |  |  |  |  |  |  | 
4 | CCC(C)S(=O)(=O)c1c(S(C)(=O)=O)ccc(C(=O)Nc2nnc(C(C)C)o2)c1Cl (racemic) [Compound 3-522] | A (Fresh weight inhibition rate≥80% to 100%) | C (Fresh weight inhibition rate≥40% to <60%) | A (Fresh weight inhibition rate≥80% to 100%) | A (Fresh weight inhibition rate≥80% to 100%) | A (Fresh weight inhibition rate≥80% to 100%) | A (Fresh weight inhibition rate≥80% to 100%) | A (Fresh weight inhibition rate≥80% to 100%) | E (Fresh weight inhibition rate<20%) | E (Fresh weight inhibition rate<20%) |  |  |  |  |  |  |  |  |  |  | 
5 | Cc1nnc(NC(=O)c2ccc(S(C)(=O)=O)c(S(=O)(=O)C3CC3)c2Cl)o1 [Compound 3-81] | A (Fresh weight inhibition rate≥80% to 100%) | A (Fresh weight inhibition rate≥80% to 100%) | A (Fresh weight inhibition rate≥80% to 100%) | A (Fresh weight inhibition rate≥80% to 100%) | A (Fresh weight inhibition rate≥80% to 100%) | A (Fresh weight inhibition rate≥80% to 100%) | A (Fresh weight inhibition rate≥80% to 100%) | E (Fresh weight inhibition rate<20%) | E (Fresh weight inhibition rate<20%) |  |  |  |  |  |  |  |  |  |  | 
6 | C=CCS(=O)(=O)c1c(S(C)(=O)=O)ccc(C(=O)Nc2nnc(CC)o2)c1Cl [Compound 3-458] | A (Fresh weight inhibition rate≥80% to 100%) | A (Fresh weight inhibition rate≥80% to 100%) | A (Fresh weight inhibition rate≥80% to 100%) | A (Fresh weight inhibition rate≥80% to 100%) | A (Fresh weight inhibition rate≥80% to 100%) | A (Fresh weight inhibition rate≥80% to 100%) | A (Fresh weight inhibition rate≥80% to 100%) | E (Fresh weight inhibition rate<20%) | E (Fresh weight inhibition rate<20%) |  |  |  |  |  |  |  |  |  |  | 
7 | Cc1nnc(NC(=O)c2ccc(S(C)(=O)=O)c(S(=O)(=O)C3CCCC3)c2Cl)o1 [Compound 3-91] | A (Fresh weight inhibition rate≥80% to 100%) | A (Fresh weight inhibition rate≥80% to 100%) | A (Fresh weight inhibition rate≥80% to 100%) | A (Fresh weight inhibition rate≥80% to 100%) | A (Fresh weight inhibition rate≥80% to 100%) | A (Fresh weight inhibition rate≥80% to 100%) | A (Fresh weight inhibition rate≥80% to 100%) | E (Fresh weight inhibition rate<20%) | E (Fresh weight inhibition rate<20%) |  |  |  |  |  |  |  |  |  |  | 
8 | CCc1nnc(NC(=O)c2ccc(S(C)(=O)=O)c(S(=O)(=O)C3CCCC3)c2Cl)o1 [Compound 3-433] | A (Fresh weight inhibition rate≥80% to 100%) | A (Fresh weight inhibition rate≥80% to 100%) | A (Fresh weight inhibition rate≥80% to 100%) | A (Fresh weight inhibition rate≥80% to 100%) | A (Fresh weight inhibition rate≥80% to 100%) | A (Fresh weight inhibition rate≥80% to 100%) | A (Fresh weight inhibition rate≥80% to 100%) | E (Fresh weight inhibition rate<20%) | E (Fresh weight inhibition rate<20%) |  |  |  |  |  |  |  |  |  |  | 
9 | Cc1nnc(NC(=O)c2ccc(S(C)(=O)=O)c(S(=O)(=O)C(C)C)c2Cl)o1 [Compound 3-10, 2-chloro-3-(isopropylsulfonyl)-N-(5-methyl-1,3,4-oxadiazol-2-yl)-4-(methylsulfonyl)benzamide] |  |  |  |  |  |  |  | E (Fresh weight inhibition rate<20%) | E (Fresh weight inhibition rate<20%) |  |  |  |  | 80 to 100 | 80 to 100 | 80 to 100 | 80 to 100 | 80 to 100 | 80 to 100 | 80 to 100
10 | C=CCS(=O)(=O)c1c(S(C)(=O)=O)ccc(C(=O)Nc2nnco2)c1Cl [Compound 3-342] | A (Fresh weight inhibition rate≥80% to 100%) | A (Fresh weight inhibition rate≥80% to 100%) | A (Fresh weight inhibition rate≥80% to 100%) | A (Fresh weight inhibition rate≥80% to 100%) | A (Fresh weight inhibition rate≥80% to 100%) | A (Fresh weight inhibition rate≥80% to 100%) | A (Fresh weight inhibition rate≥80% to 100%) | E (Fresh weight inhibition rate<20%) | E (Fresh weight inhibition rate<20%) |  |  |  |  |  |  |  |  |  |  | 

Reference: patent US20250223268A1, “4-Methylsulfonylbenzamide Compound, Preparation Method, Herbicidal Composition And Use” (Jiangsu Flag Chemical Industry Co., Ltd., priority 2022, published 2025)
